# Assays:
# menin = target: T1, menin (Homo sapiens, UniProt O00255); assay: Isothermal Titration Calorimetry (ITC) on purified menin; assay type: binding
# T1 construct: purified menin (1–615 with GST-tag cleaved as described above); GST (TEV cleavable) (N, cleaved yes); made in house; host or cells: E. coli BL21 (DE3)
# T1 sequence (O00255 1-615 isoform O00255-1): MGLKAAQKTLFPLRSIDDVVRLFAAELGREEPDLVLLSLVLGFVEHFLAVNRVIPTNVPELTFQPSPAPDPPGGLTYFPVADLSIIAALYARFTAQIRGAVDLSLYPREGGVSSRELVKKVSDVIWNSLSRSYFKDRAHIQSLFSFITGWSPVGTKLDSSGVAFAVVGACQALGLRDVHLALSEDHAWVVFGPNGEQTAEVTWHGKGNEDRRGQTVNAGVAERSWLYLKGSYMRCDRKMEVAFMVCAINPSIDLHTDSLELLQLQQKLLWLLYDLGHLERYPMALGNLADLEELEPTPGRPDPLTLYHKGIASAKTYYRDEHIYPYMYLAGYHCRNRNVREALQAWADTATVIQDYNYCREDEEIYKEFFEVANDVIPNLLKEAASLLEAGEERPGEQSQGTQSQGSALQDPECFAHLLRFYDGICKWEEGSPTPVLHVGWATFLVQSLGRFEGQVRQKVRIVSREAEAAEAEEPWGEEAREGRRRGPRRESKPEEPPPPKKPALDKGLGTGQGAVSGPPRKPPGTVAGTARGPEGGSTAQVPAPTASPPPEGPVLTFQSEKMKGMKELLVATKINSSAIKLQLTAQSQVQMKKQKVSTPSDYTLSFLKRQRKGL
# Method: Cloning of expression vectors for recombinant menin was performed as follows. […] Proteins were expressed in E. coli BL21 (DE3) following 0.1 mM IPTG induction at 17 °C overnight. For purification, cell pellets were resuspended in buffer A (50 mM Tris pH 7.5, 300 mM NaCl, 2 mM DTT). Cells were lysed using a high pressure Microfluidics apparatus and the cell debris pelleted by centrifugation. The supernatant was applied to a GST column (GE Healthcare, Chicago, IL, USA), washed with two column volumes of washing buffer A and eluted with Buffer B (Buffer A plus 15 mM reduced glutathione). If necessary, the purification tag was cleaved off with the addition of His-TEV protease (1:20 mass ratio) during overnight incubation in buffer A. His-TEV was removed by IMAC column rebinding and final protein purification of either GST-cleaved or uncleaved menin-1 was performed by size exclusion chromatography using a HiLoad 16/60 Superdex 200 (GE Healthcare) column in buffer C (Buffer A but 50 mM NACl).
# The compound was dissolved in 100% DMSO to a concentration of 10 mM and subsequently diluted to a final concentration of 5 µM in ITC Buffer. Isothermal Titration Calorimetry (ITC) was performed at 25 °C in a Microcal PEAQ-ITC (Malvern Panalytical). […] Reference Power was set to 6 μcal/s. Data were collected on high feedback mode. Analysis was performed with a single binding site model in the Microcal PEAQ-ITC Analysis Software (Malvern Panalytical).
# MV4;11 cells = assay: Proliferation inhibition, MV4;11; assay type: cell-based, human; details: MV4;11
# [1] = tested on: safety pharmacology relevant proteins (GPCRs, ion channels and transporters); assay: Selectivity panel of safety pharmacology assays; details: 10 µM
# ZR-75-1 cells = assay: RNA-seq differential gene expression, ZR-75-1; assay type: cell-based; details: ZR-75-1, 5 µM, 48 h
# Method: Total RNA was isolated using RNeasy-Plus Mini kit (Qiagen, Hilden, Germany). RNA (1 μg) was reverse transcribed using SuperScript III First-Strand Synthesis SuperMix (Life Technologies) and the generated cDNA was analyzed with commercial primers (Supplementary Materials Table S1) by qRT-PCR using TaqMan Fast Advanced Master Mix (Life Technologies). For the RNA-seq study, ZR-75-1, BT474, PANC-1, MiaPaCa-2, 22RV1, JMSU-1, DLD-1, SW1463, LoVo and G401 cells were treated with 5 µM BAY-155 or DMSO for 48 h prior to RNA extraction. After 48 h of 5 µM BAY-155 or DMSO treatment, MCF7, VCaP and LNCaP cells were stimulated for further 12 h with 0.1 nM of E2 (ß-Estradiol) or 1 nM R1881, respectively. MCF7, VCaP and LNCaP cells were cultured in starvation medium (containing 5 µM BAY-155 or DMSO) 6 h before stimulation. RNA was isolated using RNeasy-Plus Mini kit (Qiagen). The purified RNA was used for library preparation (Illumina, San Diego, CA, USA. TruSeq Stranded mRNA Kit) and the generated libraries were sequenced (Illumina, HiSeq2500 HTv4, SR, dual-indexing, 50 cycles).
# RNA-seq reads were aligned to hg38 using STAR aligner. Protein-coding genes with more than 10 reads in more than three samples were used for the analysis (total samples N = 86; genes N = 13,003). […]
# [2] = cited from earlier work
# CYP 3A4 = CYP 3A4 (Homo sapiens, UniProt P08684); details: cited from earlier work
# Chain of CYP 3A4 (P08684 whole entry): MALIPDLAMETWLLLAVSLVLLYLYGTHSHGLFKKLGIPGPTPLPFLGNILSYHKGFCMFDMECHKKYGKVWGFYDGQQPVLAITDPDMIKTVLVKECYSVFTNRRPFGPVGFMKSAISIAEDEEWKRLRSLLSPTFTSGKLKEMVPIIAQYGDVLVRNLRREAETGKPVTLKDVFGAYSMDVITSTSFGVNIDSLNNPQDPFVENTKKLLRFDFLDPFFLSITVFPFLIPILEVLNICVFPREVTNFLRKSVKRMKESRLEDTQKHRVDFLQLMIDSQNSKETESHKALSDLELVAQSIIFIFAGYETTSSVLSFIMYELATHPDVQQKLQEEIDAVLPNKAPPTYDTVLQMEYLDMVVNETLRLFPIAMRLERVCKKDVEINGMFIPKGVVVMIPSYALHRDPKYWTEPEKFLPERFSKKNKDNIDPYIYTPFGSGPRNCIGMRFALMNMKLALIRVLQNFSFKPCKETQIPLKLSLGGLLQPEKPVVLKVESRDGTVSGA
compound,measurement,setting,value
Cc1c(CN2CCC3(CC2)CN(c2ncnc4sc(CC(F)(F)F)cc24)C3)ccc2c1cc(C#N)n2CC(N)=O [BAY-155],Kd,menin,75 nM
same,stoichiometry factor N,menin; ITC,1.06
same,fold improved proliferation inhibition vs MI-503,MV4;11 cells,2.8 fold
same,number of tested proteins inhibited by ≥ 50%,[1],7
same,cases in which an IC50 value could be reached,[1]; of 77 targets,7/77
same,number of differentially expressed genes,ZR-75-1 cells,10 genes
same,"CLblood (metabolic stability in rat hepatocytes, as worded in text)",[2],18.3 mL/min/kg
same,IC50,CYP 3A4,> 20000 nM
